Source: patent US10988477B2 (Merck Patent GmbH, priority 2018, dated 2021)

Tests used:
GCN2 kinase = GCN2 kinase (Homo sapiens, UniProt Q9P2K8); experiment: GCN2 enzyme inhibition assay (Transcreener ADP2 fluorescence polarization); type: biochemical; details: 280 μM ATP
How it was run: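 FP detection of ADP (antibody plus Alexa633 tracer) after a 1 h, 25 °C kinase reaction. Enzyme 4 nM, ATP 280 μM, (RS)7 peptide 200 μM, Tris pH 7.5 buffer with MgCl2 and DTT. Percent inhibition fitted by non-linear tight-binding algorithm for IC50 and Ki(app).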

[1] = target: intracellular GCN2 (phosphorylation of the GCN2 substrate eIF2α) (Homo sapiens, UniProt Q9P2K8); experiment: GCN2 cellular inhibition assay (AlphaScreen SureFire P-eIF2α Ser51, borrelidin-treated U2OS cells); type: cell-based; details: biomarker assay, phosphorylated eIF2α Ser51 in borrelidin-treated U2OS cells
Chain of intracellular GCN2 (phosphorylation of the GCN2 substrate eIF2α) (Q9P2K8 whole entry): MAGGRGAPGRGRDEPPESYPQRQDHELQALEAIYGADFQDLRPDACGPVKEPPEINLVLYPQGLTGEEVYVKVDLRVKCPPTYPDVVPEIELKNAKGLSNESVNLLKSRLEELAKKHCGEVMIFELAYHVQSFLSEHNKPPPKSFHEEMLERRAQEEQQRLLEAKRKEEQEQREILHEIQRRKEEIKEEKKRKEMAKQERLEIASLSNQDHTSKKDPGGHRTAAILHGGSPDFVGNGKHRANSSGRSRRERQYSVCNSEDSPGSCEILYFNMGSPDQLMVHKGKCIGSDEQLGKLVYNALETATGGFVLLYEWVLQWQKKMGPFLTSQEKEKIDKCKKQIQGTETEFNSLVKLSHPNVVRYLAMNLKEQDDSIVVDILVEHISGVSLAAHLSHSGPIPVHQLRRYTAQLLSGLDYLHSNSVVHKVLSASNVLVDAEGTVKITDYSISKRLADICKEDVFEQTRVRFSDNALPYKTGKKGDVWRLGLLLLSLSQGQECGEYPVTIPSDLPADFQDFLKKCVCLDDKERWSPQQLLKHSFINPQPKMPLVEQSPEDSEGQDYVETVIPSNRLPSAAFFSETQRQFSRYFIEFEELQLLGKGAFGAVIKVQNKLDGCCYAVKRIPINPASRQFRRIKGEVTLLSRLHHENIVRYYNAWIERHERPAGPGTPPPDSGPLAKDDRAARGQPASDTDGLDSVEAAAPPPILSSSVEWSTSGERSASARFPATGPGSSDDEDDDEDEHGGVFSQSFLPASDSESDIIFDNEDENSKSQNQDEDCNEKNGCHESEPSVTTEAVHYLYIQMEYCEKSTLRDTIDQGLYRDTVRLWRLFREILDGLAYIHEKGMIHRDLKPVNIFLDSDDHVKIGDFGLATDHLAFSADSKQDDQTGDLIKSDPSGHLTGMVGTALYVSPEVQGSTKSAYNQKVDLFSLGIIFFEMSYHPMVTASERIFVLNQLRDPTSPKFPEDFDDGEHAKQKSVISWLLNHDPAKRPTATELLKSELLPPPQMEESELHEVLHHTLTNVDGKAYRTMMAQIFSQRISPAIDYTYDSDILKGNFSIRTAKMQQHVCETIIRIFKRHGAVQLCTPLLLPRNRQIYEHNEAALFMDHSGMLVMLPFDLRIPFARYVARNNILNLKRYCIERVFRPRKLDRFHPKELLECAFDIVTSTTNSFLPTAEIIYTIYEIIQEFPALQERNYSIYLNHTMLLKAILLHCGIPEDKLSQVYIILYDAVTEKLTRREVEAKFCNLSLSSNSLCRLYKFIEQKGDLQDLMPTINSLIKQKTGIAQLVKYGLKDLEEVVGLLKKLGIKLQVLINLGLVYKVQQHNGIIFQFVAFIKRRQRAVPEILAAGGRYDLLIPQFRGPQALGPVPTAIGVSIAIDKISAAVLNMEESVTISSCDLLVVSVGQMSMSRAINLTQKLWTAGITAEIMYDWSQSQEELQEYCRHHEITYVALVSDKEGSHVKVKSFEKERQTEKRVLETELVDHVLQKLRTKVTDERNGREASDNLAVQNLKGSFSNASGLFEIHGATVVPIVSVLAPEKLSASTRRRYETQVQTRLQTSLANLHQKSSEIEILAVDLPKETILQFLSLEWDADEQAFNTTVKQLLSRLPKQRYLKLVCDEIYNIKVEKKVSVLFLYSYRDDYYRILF
Experimental: Compounds can be screened for their ability to inhibit intracellular GCN2 using an AlphaScreen assay (Perkin Elmer) to detect phosphorylation of the GCN2 substrate eIF2α in borrelidin-treated cells. U2OS cells are plated at 5,000 cells per well in 384-well white polystyrene plates (Corning 3570) in McCoy's 5 A media (GIBCO 26600-023) supplemented with 10% foetal bovine serum (SAFC 12103C), Penicillin/Streptomycin solution diluted 1:100 (Sigma P0781), and 2 mM L-glutamine (Sigma G7513), and allowed to adhere overnight at 37° C. in 5% CO2. Compounds are then added to the cell media from a final concentration of 40 μM in 4-fold serial dilutions. Borrelidin (FluoroChem M01440) is immediately added to the wells to a final concentration of 10 μM and the cells are incubated for 1 h at 37° C. in 5% CO2. After 1 h of treatment with borrelidin, the media is removed, and the cells are lysed with lysis buffer (TGR BioSciences TGRLB) at ambient temperature.
An AlphaScreen SureFire P-eIF2α (Ser51) assay kit (Perkin Elmer TGREIF2S) was used to measure levels of eIF2α phosphorylated on Serine 51. Anti-phosphorylated eIF2α Ser51 antibody-linked acceptor beads (TGR BioScience 6760617) are added to the cell homogenate (diluted 1:250 into a mixture of activation (TGR BioScience TGRAB) and reaction buffer (TGR BioScience TGREIF2S) prepared immediately before use). The plate is then incubated for 2 h at ambient temperature in the dark. Anti-eIF2α antibody-linked donor beads (TGR BioScience 6760617) were then added (diluted 1:100 in dilution buffer (TGR BioScience TGRDB) prepared immediately before use). The plate is then incubated overnight at ambient temperature in the dark.
Plates are analyzed on an Alpha Technology-compatible PHERAstar FS plate reader (BMG Labtech Version 1.14) to quantify phosphorylated eIF2α Ser51 levels. The percentage inhibition of phosphorylated eIF2α is calculated by comparison to control wells stimulated with borrelidin alone.

[2] = compounds of Formula II, 4 nM GCN2 kinase
[3] = Enzyme activity for compounds of Formula IV, Ki(app), 25° C.

Chain of GCN2 kinase (Q9P2K8 whole entry): as above

Ki (GCN2 kinase; [2]) [nM] | IC50 ([1]; compounds of Formula II) [nM] | Ki (GCN2 kinase; [3]) [nM] | IC50 ([1]; compounds of Formula IV) [nM] | SMILES
< 10 | < 500 | – | – | CC1C(CNS(C)(=O)=O)C(F)(F)CCN1c1cc(-c2cnc3ccc(C(F)F)nn23)ncn1 (stereo not drawn) [II-431, N-((1-(6-(6-(Difluoromethyl)imidazo[1,2-b]pyridazin-3-yl)pyrimidin-4-yl)-4,4-difluoro-2-methylpiperidin-3-yl)methyl)methanesulfonamide]
< 10 | 500 to 5000 | – | – | Cc1cnc(-c2cnc3ccc(C(F)F)nn23)cc1N1CCCC(CNS(C)(=O)=O)C1 (stereo not drawn) [II-53, N-((1-(2-(6-(Difluoromethyl)imidazo[1,2-b]pyridazin-3-yl)-5-methylpyridin-4-yl)piperidin-3-yl)methyl)methanesulfonamide]
10 to 1000 | > 5000 | – | – | CS(=O)(=O)NCC1CN(c2cc(-c3cnc4ccc(C(F)F)nn34)ncn2)c2ccccc21 (stereo not drawn) [II-11, N-((1-(6-(6-(Difluoromethyl)imidazo[1,2-b]pyridazin-3-yl)pyrimidin-4-yl)indolin-3-yl)methyl)methanesulfonamide]
– | – | 100 to 1000 | > 5000 | O=S(=O)(C1CCCN(c2ccnc(-c3cnc4cnc(C(F)F)cn34)n2)C1)N1CCOCC1 (stereo not drawn) [IV-172, 4-((1-(2-(6-(Difluoromethyl)imidazo[1,2-a]pyrazin-3-yl)pyrimidin-4-yl)piperidin-3-yl)sulfonyl)morpholine]
10 to 1000 | > 5000 | – | – | Clc1ccc2ncc(-c3ccnc(-c4ccccc4)c3)n2n1 [II-27, 6-Chloro-3-(2-phenylpyridin-4-yl)imidazo[1,2-b]pyridazine]
10 to 1000 | 500 to 5000 | – | – | CS(=O)(=O)N1CCCC(c2cc(-c3cnc4ccc(C(F)F)nn34)ncn2)CC1 (single isomer, unassigned) [II-276, 6-(Difluoromethyl)-3-(6-(1-(methylsulfonyl)azepan-4-yl)pyrimidin-4-yl)imidazo[1,2-b]pyridazine]
– | – | 100 to 1000 | > 5000 | FC(F)c1cn2c(-c3nccc(N4CCC(c5ccccn5)C4)n3)cnc2cn1 (stereo not drawn) [IV-77, 6-(Difluoromethyl)-3-(4-(3-(pyridin-2-yl)pyrrolidin-1-yl)pyrimidin-2-yl)imidazo[1,2-a]pyrazine]
– | – | < 10 | 500 to 5000 | OC1CCN(c2ccnc(-c3cnc4cnc(C(F)(F)F)cn34)n2)CC1c1cn[nH]c1 (single isomer, unassigned) [IV-621, 3-(1H-Pyrazol-4-yl)-1-(2-(6-(trifluoromethyl)imidazo[1,2-a]pyrazin-3-yl)pyrimidin-4-yl)piperidin-4-ol]
< 10 | < 500 | – | – | CS(=O)(=O)N(O)CC1CN(c2cc(-c3cnc4ccc(C(F)F)nn34)ccn2)CCC1(F)F (stereo not drawn) [II-131, N-((1-(4-(6-(Difluoromethyl)imidazo[1,2-b]pyridazin-3-yl)pyridin-2-yl)-4,4-difluoropiperidin-3-yl)methyl)-N-hydroxymethanesulfonamide]
– | – | 100 to 1000 | > 5000 | C[C@H]1CN(c2ccnc(-c3cnc4cnc(C(F)(F)F)cn34)n2)C[C@@H](CNS(C)(=O)=O)C1(F)F [IV-17, N-(((3S,5S)-4,4-Difluoro-5-methyl-1-(2-(6-(trifluoromethyl)imidazo[1,2-a]pyrazin-3-yl)pyrimidin-4-yl)piperidin-3-yl)methyl)methanesulfonamide]
< 10 | < 500 | – | – | CC1CC(CNS(C)(=O)=O)CN(c2cc(-c3cnc4ccc(C(F)F)nn34)ncn2)C1C (stereo not drawn) [II-544, N-((1-(6-(6-(Difluoromethyl)imidazo[1,2-b]pyridazin-3-yl)pyrimidin-4-yl)-5,6-dimethylpiperidin-3-yl)methyl)methanesulfonamide]
10 to 1000 | 500 to 5000 | – | – | CN1CCN(c2cc(-c3cnc4ccc(C(F)F)nn34)ncn2)CC12CN(S(N)(=O)=O)C2 [II-535, 8-(6-(6-(Difluoromethyl)imidazo[1,2-b]pyridazin-3-yl)pyrimidin-4-yl)-5-methyl-2,5,8-triazaspiro[3.5]nonane-2-sulfonamide]
< 10 | < 500 | – | – | C[C@H](NS(C)(=O)=O)[C@@H]1CN(c2cc(-c3cnc4ccc(C(F)F)nn34)ncn2)CCO1 (single isomer, unassigned) [II-509]
– | – | < 10 | < 500 | FC(F)(F)c1cn2c(-c3nccc(N4CCCC(c5cn[nH]c5Cl)C4)n3)cnc2cn1 (stereo not drawn) [IV-601, 3-(4-(3-(5-Chloro-1H-pyrazol-4-yl)piperidin-1-yl)pyrimidin-2-yl)-6-(trifluoromethyl)imidazo[1,2-a]pyrazine]
10 to 1000 | > 5000 | – | – | O=C(O)[C@H]1CCCN(c2cc(-c3cnc4ccc(C(F)F)nn34)ncn2)C1 [II-505, (S)-1-(6-(6-(Difluoromethyl)imidazo[1,2-b]pyridazin-3-yl)pyrimidin-4-yl)piperidine-3-carboxylic acid]
– | – | 10 to 100 | 500 to 5000 | Brc1cn2c(-c3nccc(N4CCNC(c5cn[nH]c5)C4)n3)cnc2cn1 (stereo not drawn) [IV-371, 3-(4-(3-(1H-Pyrazol-4-yl)piperazin-1-yl)pyrimidin-2-yl)-6-bromoimidazo[1,2-a]pyrazine]
10 to 1000 | 500 to 5000 | – | – | O=C1NCC2CN(c3cc(-c4cnc5ccc(C(F)F)nn45)ccn3)CCN12 (stereo not drawn) [II-175, 7-(4-(6-(Difluoromethyl)imidazo[1,2-b]pyridazin-3-yl)pyridin-2-yl)hexahydroimidazo[1,5-a]pyrazin-3(2H)-one]
– | – | 100 to 1000 | > 5000 | NS(=O)(=O)N[C@H]1CCCN(c2ccnc(-c3cnc4cnc(C(F)F)cn34)n2)C1 [IV-179, 6-(Difluoromethyl)-3-[4-[(3S)-3-(sulfamoylamino)-1-piperidyl]pyrimidin-2-yl]imidazo[1,2-a]pyrazine]
10 to 1000 | 500 to 5000 | – | – | C[C@H]1CCCCN1c1cc(-c2cnc3ccc(C(F)F)nn23)ncn1 [II-323, (S)-6-(Difluoromethyl)-3-(6-(2-methylpiperidin-1-yl)pyrimidin-4-yl)imidazo[1,2-b]pyridazine]
10 to 1000 | 500 to 5000 | – | – | CS(=O)(=O)NCC1CN(c2cc(-c3cnc4ccc(C(F)F)nn34)ncn2)CCN1 (stereo not drawn) [II-450, N-((4-(6-(6-(Difluoromethyl)imidazo[1,2-b]pyridazin-3-yl)pyrimidin-4-yl)piperazin-2-yl)methyl)methanesulfonamide]
10 to 1000 | 500 to 5000 | – | – | NC(=O)C1CN(c2cc(-c3cnc4ccc(C(F)F)nn34)ccn2)CCO1 (stereo not drawn) [II-135, 4-(4-(6-(Difluoromethyl)imidazo[1,2-b]pyridazin-3-yl)pyridin-2-yl)morpholine-2-carboxamide]
10 to 1000 | 500 to 5000 | – | – | CC1CN(c2cc(-c3cnc4ccc(C(F)F)nn34)ncn2)CC(CNS(C)(=O)=O)N1C (stereo not drawn) [II-418, N-((4-(6-(6-(Difluoromethyl)imidazo[1,2-b]pyridazin-3-yl)pyrimidin-4-yl)-1,6-dimethylpiperazin-2-yl)methyl)methanesulfonamide]
< 10 | 500 to 5000 | – | – | CC1C(CNS(C)(=O)=O)C(F)(F)C(C)CN1c1cc(-c2cnc3ccc(C(F)F)nn23)ncn1 (stereo not drawn) [II-461, N-((1-(6-(6-(Difluoromethyl)imidazo[1,2-b]pyridazin-3-yl)pyrimidin-4-yl)-4,4-difluoro-2,5-dimethylpiperidin-3-yl)methyl)methanesulfonamide]
10 to 1000 | 500 to 5000 | – | – | CCS(=O)(=O)N[C@H]1CCCN(c2cc(-c3cnc4ccc(C(F)F)nn34)ncn2)C1 [II-421, (S)—N-(1-(6-(6-(Difluoromethyl)imidazo[1,2-b]pyridazin-3-yl)pyrimidin-4-yl)piperidin-3-yl)ethanesulfonamide]
– | – | 100 to 1000 | > 5000 | FC(F)c1cn2c(-c3nccc(N4CC5CCC(C4)O5)n3)cnc2cn1 [IV-91, 3-(2-(6-(Difluoromethyl)imidazo[1,2-a]pyrazin-3-yl)pyrimidin-4-yl)-8-oxa-3-azabicyclo[3.2.1]octane]
– | – | 100 to 1000 | > 5000 | CC(=O)N1CCN(c2cccc(-c3cnc4cnccn34)n2)CC1 [IV-2, 1-(4-(6-(Imidazo[1,2-a]pyrazin-3-yl)pyridin-2-yl)piperazin-1-yl)ethan-1-one]
10 to 1000 | > 5000 | – | – | CS(=O)(=O)N1CCC(c2cc(-c3cnc4ccc(C(F)F)nn34)ncn2)C1 (stereo not drawn) [II-250, 6-(Difluoromethyl)-3-(6-(1-(methylsulfonyl)pyrrolidin-3-yl)pyrimidin-4-yl)imidazo[1,2-b]pyridazine]
